Read-outs that look alike come from different tables or passages of the source.
Key:
[1] = hydrochlorides, reported by K. Nakamura et al., cited from earlier work
panelists = test: Intensity of sweet taste, tasted against a 5% aqueous sucrose standard solution; format: in vivo; conditions: for Sweetness Intensity / Degree of sweet taste / intensity of sweet taste: as compared with a 5% aqueous solution of sucrose; for Degree of sweet taste / intensity of sweet taste: salt crystals
Protocol: Intensity of sweet taste (sweetening potency; degree of sweet taste) of the crystals of each stereoisomer obtained can be determined by comparing with a 5% aqueous solution of sucrose, but a method for the determination of intensity of sweet taste is not limited thereto. “Sweet taste” intensity of each stereoisomer obtained was measured by the following method. A 0.05% aqueous solution of each stereoisomer was prepared and diluted to an appropriate extent to prepare an aqueous solution of a sample of a predetermined concentration. Separately, a 5% aqueous solution of sucrose was prepared and used as a standard solution. The diluted aqueous solution of the sample and the standard aqueous sucrose solution were tasted one after another and the sweetness rate was determined from the sample concentration where the intensities of sweetness were noted to be same. Seven panelists performed the evaluation.

[2] = Comparison of thermostability of the crystals (120° C., open vial, decomposed products by HPLC); format: physicochemical; conditions: area % to residual monatin
Protocol: Comparison of Thermostability of the Crystals.
Each 50 mg of the crystals and the amorphous solid prepared by the above-mentioned methods were placed in a 4-ml vial and preserved (kept) at the temperature of 120° C. At that time, the vial was made in an open state. Each 2 mg of the sample were taken out after retention time of 3 hours, 7 hours and 24 hours and the rate (ratio) of decomposed products were determined by means of HPLC (high-performance liquid chromatography).

[3] = samples crystallized and purified as a sodium salt
[4] = samples prepared by HPLC, purified by ion-exchange resin and freeze-dried as an ammonium salt

Cl.N[C@@H](C[C@](O)(Cc1c[nH]c2ccccc12)C(=O)O)C(=O)O
Sweet taste, in words [1]: almost no sweet taste | Sweet taste, in words ([1]; listed as synthetic (2S,4R) monatin substance): slightly sweet taste

N[C@H](CC(O)(Cc1c[nH]c2ccccc12)C(=O)O)C(=O)O (stereo partly drawn) [(2R, 4S)]
Sweetness Intensity (panelists; [3]): ca. 1300 | Sweetness Intensity (panelists; [4]): ca. 800

N[C@@H](C[C@@](O)(Cc1c[nH]c2ccccc12)C(=O)O)C(=O)O [(2S, 4S), (2S,4S)-2-amino-4-carboxy-4-hydroxy-5-(3-indolyl)-pentanoic acid]
Intensity of the sweet taste (panelists; Example 1 ammonium salts, amorphous solid, 5% aqueous sucrose standard, seven panelists): about 300 fold | Sweetness Intensity (panelists; [3]): ca. 50 | Sweetness Intensity (panelists; [4]): ca. 300 | Intensity of sweet taste, comparison in words (panelists; comparison among the four stereoisomers and with reported data): far lower than the data which were reported already | Degree of sweet taste / intensity of sweet taste (panelists): about 50 fold

N.N[C@H](C[C@](O)(Cc1c[nH]c2ccccc12)C(=O)O)C(=O)O [Ammonium salt crystals]
Rate of Decomposed Product A (%) ([2]; retention time 3 hours): 1.9% | Rate of Decomposed Product B (%) ([2]; retention time 3 hours): 1.2% | Rate of Decomposed Product A (%) ([2]; retention time 7 hours): 3.8% | Rate of Decomposed Product B (%) ([2]; retention time 7 hours): 2.3% | Rate of Decomposed Product A (%) ([2]; retention time 24 hours): 11.8% | Rate of Decomposed Product B (%) ([2]; retention time 24 hours): 7.6%

NC(CC(O)(Cc1c[nH]c2ccccc12)C(=O)O)C(=O)[O-].[Na+] (centres unmarked) [Example 11]
Degree of sweet taste / intensity of sweet taste (panelists): about 1300 fold

N[C@H](CC(O)(Cc1c[nH]c2ccccc12)C(=O)O)C(=O)O (some centres unmarked) [Free substance crystals]
Rate of Decomposed Product A (%) ([2]; retention time 3 hours): 2.0% | Rate of Decomposed Product B (%) ([2]; retention time 3 hours): 2.1% | Rate of Decomposed Product A (%) ([2]; retention time 7 hours): 3.8% | Rate of Decomposed Product B (%) ([2]; retention time 7 hours): 4.3% | Rate of Decomposed Product A (%) ([2]; retention time 24 hours): 5.3% | Rate of Decomposed Product B (%) ([2]; retention time 24 hours): 11.7%

Cl.N[C@@H](C[C@@](O)(Cc1c[nH]c2ccccc12)C(=O)O)C(=O)O [synthetic (2S,4S) monatin substance]
Sweet taste, in words [1]: sweet potency equivalent to that of the a natural specimen of monatin

Reference: patent US7795296B2, “Crystals of non-natural-type stereoisomer salt of monatin and use thereof” (Ajinomoto Co., Inc., priority 2001, dated 2010)
